Laboratory results taken from US9416181B2, “Compositions for cell culture and methods of using the same” (AbbVie Inc., priority 2013, dated 2016).

Experiments:
Format in all cases: cell-based, Chinese Hamster
[1] = test system: Cell Line 1 (CHO) expressing Antibody 1; experiment: Cell culture performance (cell growth, viability, titer), Cell Line 1 shake flask fed-batch culture; details: for cell growth profile vs unsupplemented control: 3 concentrations in CDFM up to 0.5 g/L (genistein) or 1 g/L (rutin, naringin); for cell growth profile vs unsupplemented control / relative harvest titer vs unsupplemented control: shake flask
Procedure: (§1) A recombinant Chinese Hamster Ovary (CHO) cell line (Cell Line 1) expressing a humanized monoclonal antibody (Antibody 1) was evaluated in 2 different cultures vessels (shaker flasks and 3 L laboratory-scale bioreactors). The cell line was of CHO DUX-B11 origin based on a DHFR (dihydrofolate reductase) expression system and cultured in a chemically defined basal media, and fed periodically with a chemically-defined feed media (CDFM). The media utilized throughout all of the experiments were chemically-defined, and both animal-component free, and protein-free. Each of the respective media were supplemented as needed with selected bioflavonoids to evaluate for their potential impact on the resulting acidic species profile. In preparation of the cultures, the cell lines were serially expanded through separate seed train inoculums to generate enough cells for inoculation. Process conditions utilized during the cultures were slightly different depending on the culture scale, but similar within each scale to the respective non-bioflavonoid supplemented control conditions. All bioflavonoids utilized were purchased from Sigma-Aldrich (St. Louis, Mo.).
Viable cell density (VCD) and cell viability values were measured through trypan blue exclusion via Cedex automated cell counters (Roche Applied Science, Indianapolis, Ind.), glucose and lactate values were measured with a ABL-805 (Radiometer Medical, Denmark) blood gas analyzer. Offline pH, dissolved oxygen (DO), and pCO2 measurements were performed as needed with an ABL-805 (Radiometer Medical, Denmark) blood gas analyzer. Osmolality was measured as needed on a Multi-Osmette 2430 osmometer (Precision Systems, Natick, Mass.).
Antibody titers were measured from crude cell culture harvests on a Poros A™ (Life Technologies, Carlsbad, Calif.) affinity column using an HPLC system operating with a low pH, step elution gradient with detection at 280 nm. Absolute concentrations were assigned with respect to reference standard calibration curves.
(§2) In this Example, EGCG was added into the feed (cell culture medium) at the concentration range of 5 mg/L (low), 20 mg/L (mid) and 50 mg/L (high) in a shaker experiment to determine the impact of EGCG on product quality of a humanized monoclonal antibody (Antibody 1). Detailed cell culture conditions are as described in Table 1.
(§3) However, it was not clear whether or not additional bioflavonoids would also have the same effects. To evaluate the impact of alternative bioflavonoids, fed-batch shake flask cultures were initiated with CDFM supplemented with 3 different concentrations of genistein, rutin, and naringin, in addition to EGCG. Cell growth, viability, as well as titers and acidic species variants were measured.
(§4) To evaluate the impact of other bioflavonoids, fed-batch shake flask cultures were initiated with CDFM supplemented with multiple concentrations of rutin. Cell growth, viability, as well as titers and acidic species variants were measured and shown in FIGS. 14 and 15, respectively.

[2] = test system: Cell Line 4 (CHO) expressing DVD2
Procedure: (§5) Four different recombinant Chinese Hamster Ovary (CHO) cell lines expressing four different recombinant glycoproteins were evaluated in either shaker flask culture, or 3 L laboratory scale bioreactors. Cell Line 1 was genetically engineered to express Antibody 1, Cell Line 2 was genetically engineered to express Antibody 2, Cell Line 3 was genetically engineered to express dual variable domain immunoglobulin 1 (DVD1) and Cell Line 4 was genetically engineered to express dual variable domain immunoglobulin 2 (DVD2).
Viable cell density (VCD) and cell viability values were measured through trypan blue exclusion via Cedex automated cell counters (Roche Applied Science, Indianapolis, Ind.), glucose and lactate values were measured with a ABL-805 (Radiometer Medical, Denmark) blood gas analyzer. Offline pH, dissolved oxygen (DO), and pCO2 (Dissolved carbon dioxide) measurements were performed as needed with an ABL-805 (Radiometer Medical, Denmark) blood gas analyzer. Osmolality was measured as needed on a Multi-Osmette 2430 osmometer (Precision Systems, Natick, Mass.).
Protein A Affinity Chromatography-Antibody titers were measured from crude cell culture harvests on a Poros ATM (Life Technologies, Carlsbad, Calif.) affinity column using an HPLC system operating with a low pH, step elution gradient with detection at 280 nm. […]

[3] = test system: Cell Line 4 (CHO) expressing DVD2; experiment: Acidic species variants (WCX-10), Cell Line 4 shake flask culture
Procedure: as §5
Charge Heterogeneity via Weak Cation Exchange Chromatography-Samples were analyzed using an HPLC system equipped with a ProPac WCX-10 analytical column (Thermo Scientific, Sunnyvale, Calif.). Approximately 100 μg of sample was loaded in 6% Buffer B (10 mM sodium phosphate, 500 mM NaCl, pH 5.5) and 94% Buffer A (10 mM sodium phosphate, pH 7.5). The column was run at a flow rate of 1.0 mL/min. The protein was eluted from the column by increasing the buffer B composition from 6% to 16% over 20 minutes. The protein peaks were measured using UV absorbance at 280 nm as the peaks eluted from the column. […]
as §4

[4] = test system: Cell Line 1 (CHO) expressing Antibody 1; experiment: Acidic species variants (WCX-10) of Antibody 1, Cell Line 1 3 L bioreactor fed-batch culture; details: 0.1 g/L in CDFM, Day 15 harvest
Procedure: as §1
(§6) Samples were analyzed using an HPLC system equipped with a ProPac WCX-10 analytical column (Thermo Scientific, Sunnyvale, Calif.). Approximately 100 μg of sample was loaded in 6% Buffer B (10 mM sodium phosphate, 500 mM NaCl, pH 5.5) and 94% Buffer A (10 mM sodium phosphate, pH 7.5). The column was run at a flow rate of 1.0 mL/min. The protein was eluted from the column by increasing the buffer B composition from 6% to 16% over 20 minutes. The protein peaks were measured using UV absorbance at 280 nm as the peaks eluted from the column. The column was regenerated using 100% buffer B followed be a re-equilibration period using initial condition before the injection of the next sample. Peaks eluting before the main peak were termed “acidic peaks” and peaks eluting after the main peak were called “basic peaks” (FIG. 2).
In the next experiment, lab-scale bioreactors were used to (1) confirm the shaker experiment results and (2) to determine whether higher concentration range of EGCG is suitable for supplementing into cell culture. EGCG was added to the feed of the batch culture at the concentrations of 20 mg/L (mid), 50 mg/L (high) and 125 mg/L (high+) and 250 mg/L (high++) in this reactor experiment.
Cell Line 1 was evaluated in larger-scale feed batch cultures with the feed media supplemented with various bioflavonoids. […] By contrast, cell growth performance was slightly different for the 0.1 g/L EGCG supplemented condition. […] However, the cell viability remained high at 0.1 g/L EGCG. All cultures were successfully harvested on Day 15 post-inoculation. The harvest titers measured from the evaluated cultures were similar.
Cell Line 1 was also evaluated in laboratory-scale fedbatch cultures with the feed media supplemented with various bioflavonoids. […] Cell growth performance was slightly different however with the 0.1 g/L EGCG supplemented condition. […] All cultures were able to be successfully harvested on Day 15 post-inoculation.

[5] = test system: Cell Line 1 (CHO) expressing Antibody 1; experiment: Acidic species variants (WCX-10) of Antibody 1, Cell Line 1 shake flask fed-batch culture; details: shake flask
Procedure: as §1, §6, §2, §3
Charge Heterogeneity via Weak Cation Exchange Chromatography-Samples were analyzed using an HPLC system equipped with a ProPac WCX-10 analytical column (Thermo Scientific, Sunnyvale, Calif.). Approximately 100 μg of sample was loaded in 6% Buffer B (10 mM sodium phosphate, 500 mM NaCl, pH 5.5) and 94% Buffer A (10 mM sodium phosphate, pH 7.5). The column was run at a flow rate of 1.0 mL/min. The protein was eluted from the column by increasing the buffer B composition from 6% to 16% over 20 minutes. The protein peaks were measured using UV absorbance at 280 nm as the peaks eluted from the column. The column was regenerated using 100% buffer B followed be a re-equilibration period using initial condition before the injection of the next sample. Peaks eluting before the main peak were termed ‘acidic peaks’ and peaks eluting after the main peak were called ‘basic peaks’ (FIG. 2).
as §4

SMILES	cell growth profile vs unsupplemented control [1]	concentration above which peak viable cell density dropped lower than unsupplemented control [2]	increase in harvest titer ([2]; CDFM supplemented to 1 g/L, Cell Line 4)	ratio of acidic region to unsupplemented control ([3]; 0.1 g/L in CDFM)	ratio of acidic region to unsupplemented control ([3]; 1 g/L in CDFM)	drop in absolute acidic species percentage points ([4]; 3 L bioreactor)	relative total AR (ratio to Day 8 value of unsupplemented control) ([4]; bioreactor)	ratio of acidic region to unsupplemented control ([5]; 0.1 g/L in CDFM)	ratio of acidic region to unsupplemented control ([5]; 1 g/L in CDFM)	concentration above which peak viable cell density dropped lower than unsupplemented control [1]	relative harvest titer vs unsupplemented control ([1]; 0.01 g/L in CDFM)	relative harvest titer vs unsupplemented control ([1]; 0.1 g/L in CDFM)	relative harvest titer vs unsupplemented control ([1]; 1 g/L in CDFM, statistically significant)	drop in harvest titer ([1]; CDFM supplemented to 1 g/L, Cell Line 1)	harvest cell viability ([1]; Chinese hamster, 1 g/L)
O=c1c(-c2ccc(O)cc2)coc2cc(O)cc(O)c12 [genistein]	lower than the unsupplemented control condition	–	–	–	–	–	–	–	–	–	–	–	–	–	–
C[C@@H]1O[C@@H](O[C@H]2[C@H](Oc3cc(O)c4c(c3)O[C@H](c3ccc(O)cc3)CC4=O)O[C@H](CO)[C@@H](O)[C@@H]2O)[C@H](O)[C@H](O)[C@H]1O [naringin]	lower than the unsupplemented control condition	–	–	–	–	–	–	–	–	–	–	–	–	–	–
C[C@@H]1O[C@@H](OC[C@H]2O[C@@H](Oc3c(-c4ccc(O)c(O)c4)oc4cc(O)cc(O)c4c3=O)[C@H](O)[C@@H](O)[C@@H]2O)[C@H](O)[C@H](O)[C@H]1O [rutin]	–	> 0.1 g/L	9%	0.75	0.69	5%	1.00	0.97	0.65	higher than 0.05 g/L	0.98	0.93	0.78	at most 22%	76%
